38 compounds from the SangsterLogP compilation can be followed below.

One series in a line: method code SF-AS, from DOI: 10.1111/j.2042-7158.1991.tb06664.x, PMID: 1675277.
For `Cc1ccc(S(=O)(=O)c2ccc(N)cc2)cc1`, the logP (commonly the decadic logarithm of the partition coefficient of the neutral form, usually between octanol and water) was found to be 2.4.

In turn, `CC(=O)c1ccc(S(=O)(=O)c2ccc(N)cc2)cc1` yielded a lipophilicity (logP) of 1.67.

On to `Nc1ccc(S(=O)(=O)c2ccc(NO)cc2)cc1`, for which the logP worked out at 0.88. On the same count and under the same terms, to `Nc1ccc(S(=O)(=O)c2ccc(Cl)cc2)cc1` belongs 2.57; to `CCN(CC)c1ccc(S(=O)(=O)c2ccc(N)cc2)cc1`, 3; to `Nc1ccc(S(=O)(=O)c2c(O)cc(O)cc2O)cc1`, 1.53. The same measure, in the same setting: to `Nc1ccc(S(=O)(=O)c2ccc(Cl)cc2Cl)cc1` belongs 3.12. `COc1ccc(S(=O)(=O)c2ccc(N)cc2)cc1` showed a logP of 1.96.

`NC(=O)c1ccc(S(=O)(=O)c2ccc(N)cc2)cc1`: the logP worked out at 0.9. `CCNc1ccc(S(=O)(=O)c2ccc(N)cc2)cc1` gave a logP of 1.98.

Take `CCN(CC)C(=O)c1ccc(S(=O)(=O)c2ccc(N)cc2)cc1`: the logP turned out to be 1.44. Turning to `COc1cc(OC)c(S(=O)(=O)c2ccc(N)cc2)c(OC)c1`, the logP was 1.03. Same read-out and setting: to `N#Cc1ccc(S(=O)(=O)c2ccc(N)cc2)cc1` belongs 1.63; to `Nc1ccc(S(=O)(=O)c2ccc(N)cc2N)cc1`, 0.38. On the same count and under the same terms, to `Nc1ccc(S(=O)(=O)c2ccc(F)cc2)cc1` belongs 2.01.

`Cc1cc(C)c(S(=O)(=O)c2ccc(N)cc2)c(C)c1` had a logP of 3.06. The compound `Nc1ccc(S(=O)(=O)c2ccccc2N)cc1` registered a logP of 1.56.

`Nc1ccc(S(=O)(=O)c2cccc(N)c2)cc1` displayed a logP of 1.03. Same read-out and setting: in the case of `Nc1ccc(S(=O)(=O)c2ccc(O)cc2)cc1` it was 1.57; in that of `Nc1ccc(S(=O)(=O)c2ccc(O)cc2O)cc1`, 1.29.

Experiment in the next series: not given
In the case of `Nc1ccc(S(=O)(=O)c2ccc([N+](=O)[O-])cc2[N+](=O)[O-])cc1`, the logP came out at 1.84. In turn, `COc1cccc(S(N)(=O)=O)c1` yielded a logP of 0.65. Still for that read-out and setting: to `NC(=O)c1ccc(S(N)(=O)=O)cc1` belongs -0.66; to `NS(=O)(=O)c1ccc(S(N)(=O)=O)cc1`, -0.7. Compound `Nc1ccc(S(=O)(=O)c2ccccc2)cc1` returned a logP of 1.84. Same read-out and setting: to `CC(=O)c1ccc(S(N)(=O)=O)cc1` belongs 0.31; to `Cc1ccc(S(N)(=O)=O)cc1`, 0.83.

`NS(=O)(=O)c1cccc([N+](=O)[O-])c1` showed a logP of 0.6. Compound `NS(=O)(=O)c1ccccc1` displayed a logP of 0.33. For `NC(=O)c1cccc(S(N)(=O)=O)c1`, the logP was -0.55. With `N#Cc1ccc(S(N)(=O)=O)cc1`, the logP came out at 0.4. `Cc1ccc(S(=O)(=O)c2ccc(N)cc2)c(C)c1` showed a logP of 2.69. The compound `CN(C)c1ccc(S(=O)(=O)c2ccc(N)cc2)cc1` yielded a logP of 1.93.

On to `Nc1ccc(S(=O)(=O)c2ccc([N+](=O)[O-])cc2)cc1`, for which the logP came out at 2.03. Take `N#Cc1cccc(S(N)(=O)=O)c1`: the log partition coefficient (logP) was found to be 0.27. Take `Nc1ccc(S(=O)(=O)c2ccc(Br)cc2)cc1`: the log partition coefficient (logP) was 3.15.

For the compound `COc1ccc(S(=O)(=O)c2ccc(N)cc2)c(OC)c1`, the logP came out at 1.65. The same measure, in the same setting: to `COC(=O)c1ccc(S(=O)(=O)c2ccc(N)cc2)cc1` belongs 2.13.
